# Laboratory results as given in US20200223826A1, “Glucose-6-Phosphate Dehydrogenase (G6PD)-Modulating Agents And Methods Of Treating G6PD Deficiency” (The Board of Trustees of the Leland Stanford Junior …, priority 2017, published 2020).
# Key:
# [1] = target: glyceraldehyde 3-phosphate dehydrogenase (GAPDH) (Homo sapiens, UniProt P04406); assay: Selectivity: dimerization or activity of other NAD/NADP+-dependent enzymes; assay type: biochemical
# [2] = target: T1, Canton G6PD in lymphocytes carrying the Canton variant (Homo sapiens, UniProt P11413, R459L); assay: Cycloheximide chase assay in lymphocytes; assay type: cell-based; conditions: 1 μM; 24 hours following cycloheximide treatment
# T1 construct: host or cells: lymphocytes from a G6PD-deficient subject
# T1 sequence (P11413 2-515 R459L limits assumed): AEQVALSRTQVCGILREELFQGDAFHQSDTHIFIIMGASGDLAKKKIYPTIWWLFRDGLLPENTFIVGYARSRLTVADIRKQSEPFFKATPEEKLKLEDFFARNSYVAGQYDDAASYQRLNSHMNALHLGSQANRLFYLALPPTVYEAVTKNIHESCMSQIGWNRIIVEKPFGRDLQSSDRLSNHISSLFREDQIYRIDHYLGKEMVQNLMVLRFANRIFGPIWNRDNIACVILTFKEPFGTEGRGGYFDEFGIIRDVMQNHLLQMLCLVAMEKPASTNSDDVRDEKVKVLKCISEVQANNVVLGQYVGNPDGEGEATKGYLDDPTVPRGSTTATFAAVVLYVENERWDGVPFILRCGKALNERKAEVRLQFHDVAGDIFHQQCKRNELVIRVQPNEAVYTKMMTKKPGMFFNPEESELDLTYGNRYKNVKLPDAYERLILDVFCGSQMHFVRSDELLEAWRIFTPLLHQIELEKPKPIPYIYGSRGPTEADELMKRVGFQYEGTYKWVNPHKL
# Description: (§1) Lymphocytes derived from a normal subject (HG 00866) and a G6PD-deficient subject carrying Canton variant in G6PD (HG 02367) were purchased from Coriell Institute and cultured in RPMI 1640 supplemented with 15% fetal bovine serum (FBS), 100 U/ml penicillin, and 100 μg/ml streptomycin. An SH-SY5Y neuroblastoma cell line was cultured in Dulbecco's Modification of Eagle's Medium/Ham's F-12 50/50 Mix supplemented with 10% FBS, 100 U/ml penicillin, and 100 μg/ml streptomycin. A G6PD-deficient subject-derived fibroblast cell line carrying Mediterranean variant and normal fibroblast cell line as control were purchased from Coriell Institute (GM 01152) and ThermoFisher Scientific (C0135C), respectively, and cultured in minimum essential medium supplemented with 15% FBS, 100 U/ml penicillin, and 100 μg/ml streptomycin. All the cell lines were maintained at 37° C. in a humidified incubator with an atmosphere of 5% of CO2 and 95% air.
# (§2) 50,000 cells (SH-SH5Y cells or fibroblast cells) or 100,000 cells (lymphocytes) were seeded in a 12-well plate and incubated overnight. The cells were subjected to serum starvation (50-75%) for 48 hours and treated with 50 μg/ml of cycloheximide at different time points (0-48 hours). The cells were treated with the compound (1 μM) for 48 hours together with cycloheximide. […]
# [3] = target: T2, Canton G6PD in SH-SY5Y cells (Homo sapiens, UniProt P11413, R459L); assay: Stability of Canton G6PD in SH-SY5Y cells; assay type: cell-based
# T2 construct: expressed in transfected cells; host or cells: SH-SY5Y neuroblastoma cells
# T2 sequence (P11413 whole entry R459L): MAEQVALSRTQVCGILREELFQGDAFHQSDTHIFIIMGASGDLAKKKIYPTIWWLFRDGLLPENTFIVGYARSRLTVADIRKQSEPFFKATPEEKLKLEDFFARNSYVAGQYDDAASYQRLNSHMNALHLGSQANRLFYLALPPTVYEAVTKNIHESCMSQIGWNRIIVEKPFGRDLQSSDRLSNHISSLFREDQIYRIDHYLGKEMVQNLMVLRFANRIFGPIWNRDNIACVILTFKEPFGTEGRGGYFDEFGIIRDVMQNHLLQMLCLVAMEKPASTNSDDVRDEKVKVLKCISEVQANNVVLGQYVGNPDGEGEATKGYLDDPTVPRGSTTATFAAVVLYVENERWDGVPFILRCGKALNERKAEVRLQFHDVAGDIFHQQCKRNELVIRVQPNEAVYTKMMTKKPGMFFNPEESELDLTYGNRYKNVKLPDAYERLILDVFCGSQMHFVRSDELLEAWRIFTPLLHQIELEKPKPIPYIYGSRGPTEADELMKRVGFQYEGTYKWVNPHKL
# Description: (§3) Prior to the cellular-based assays using SH-SH5Y cells, duration of overexpression of WT G6PD and Canton variant was examined by transfecting the cells seeded in a 12-well plate. The genes encoding human WT G6PD and Canton variant were first PCR-amplified, which was then inserted into pcDNA 3.1/myc-His C (ThermoFisher Scientific) using HindIII and XhoI. 0.5 μg of cDNA and 1.5 μg of lipofectamine (Invitrogen) were diluted in 50 μL of Opti-MEM medium respectively and incubated for 5 minutes. The diluted DNA was combined with diluted lipofectamine, which was followed by incubation for 20 minutes prior to the addition to cells.
# The transfected cells were collected at different time points (up to 72 hours) and the overexpressed G6PD levels were examined by Western blot. The transfection was carried out in serum-starved cells. Once the duration of expression was confirmed, other cellular-based assays were performed.
# as §2
# [4] = test system: SH-SY5Y cells expressing the Canton variant; assay: Viability of SH-SY5Y cells expressing Canton variant; assay type: cell-based, human
# Description: as §3
# Cell viability was measured using a Cell-Counting Kit-8 (CCK-8, Dojindo), utilizing WST-8 [2-(2-methoxy-4-nitrophenyl)-3-(4-nitrophenyl)-5-(2,4-disulfophenyl)-2H-tetrazolium monosodium salt, according to the manufacturer's instructions. Cells were subjected to serum starvation for 48 hours before measurement. Cells in 100 μL of medium per well were treated with 10 μL of CCK-8 solution and incubated for 2 hours at 37° C. The absorbance was read at 450 nm. Viability of lymphocytes was measured by staining with a 0.4% solution of trypan blue in buffered isotonic salt solution (pH 7.2). The viability was calculated as the number of viable cells (non-stained by the dye) divided by the total number of cells within the grids on the hemacytometer. […]
# [5] = target: T3, G6PD in lysate of human fibroblasts with the Mediterranean variant (Homo sapiens, UniProt P11413, S188F); assay: G6PD activity in fibroblast lysate; assay type: cell-based
# T3 construct: host or cells: subject-derived fibroblast cell line
# T3 sequence (P11413 2-515 S188F limits assumed): as the sequence (P11413 2-515 R459L limits assumed) above, with S187F, L458R counted along it
# Description: as §1
# Enzyme activity was measured by monitoring NADPH production, which was coupled with diaphorase converting resazurin to fluorescent resorufin (excitation at 565 nm and emission at 590 nm); fluorescent signal was thus proportional to G6PD activity. Assays were performed at 25° C. and run for 5 minutes in buffer containing 50 mM Tris (pH 7.4), 0.5 mM EDTA, 3.3 mM MgCl2, 1 U/ml diaphorase, 0.1 mM resazurin. […]
# g6pd crispant embryos = assay: g6pd crispant zebrafish embryos; assay type: in vivo; conditions: 1 μM AG1
# Description: sgRNA against Exon 10 of g6pd was designed using CHOPCHOP and in vitro transcribed according to standard protocols. The gene-specific oligo sequence was: 5′-[…] CAAG-3′ (SEQ ID NO: //). sgRNA and Cas9 protein (NEB) were mixed and microinjected into one-cell-stage embryos. For each injected clutch, 10 individual embryos were isolated at 24 hpf for sequencing to confirm introduction of a CRISPR-mediated indel in exon 10.
# Embryos were dechorinated with pronase at 24 hours post fertilization (hpf) and treated with 50 μg/ml of chloroquine and/or AG1 by directly adding the compounds to the well. For ROS measurements, embryos were incubated with compounds for 2 hours, and then the ROS detecting reagent (CM-H2DCFDA) was added at a final concentration of 500 ng/ml to the well for a total treatment time of 5 hours. One embryo was placed to each well of a black, opaque 96-well plate. The florescence was analyzed with excitation/emission at 485/525 nm. […] Total protein concentration in the supernatants (total lysate) was determined by Bradford method. […] 50 μg of the lysate was used to measure NADPH levels using a NADPH quantification kit (Biovision), according to the manufacturer's instructions.
# Chain of glyceraldehyde 3-phosphate dehydrogenase (GAPDH) (P04406 whole entry, species assumed): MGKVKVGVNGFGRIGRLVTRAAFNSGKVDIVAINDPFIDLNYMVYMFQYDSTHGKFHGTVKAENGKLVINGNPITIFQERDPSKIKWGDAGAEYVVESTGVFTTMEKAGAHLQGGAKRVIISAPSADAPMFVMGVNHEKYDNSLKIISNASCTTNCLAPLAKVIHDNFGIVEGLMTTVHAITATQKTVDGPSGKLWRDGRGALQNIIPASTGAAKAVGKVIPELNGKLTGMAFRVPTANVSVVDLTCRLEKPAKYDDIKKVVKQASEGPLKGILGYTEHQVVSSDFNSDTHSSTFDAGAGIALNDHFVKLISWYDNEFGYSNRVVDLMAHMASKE
structure (smiles),measurement,setting,value
"SCCNCCc1c[nH]c2ccccc12 [AG1, 2-[2-(1H-indol-3-yl)ethylamino]ethanethiol]",effect on dimerization or activity,[1],no effect
same,"level of Canton protein, higher relative to vehicle treatment",[2],48%
same,stability of Canton G6PD,[3],increased
same,viability,[4],mild increase
same,increase of G6PD activity in lysate,[5],50%
same,"ROS, G6PD activity, NADPH level, pericardial edema",g6pd crispant embryos,did not significantly affect
